# Measurements reported in article PMC7448123, “Ru(II) Complexes Bearing O, O-Chelated Ligands Induced Apoptosis in A549 Cells through the Mitochondrial Apoptotic Pathway” (Bioinorganic Chemistry and Applications, 2020).
# What was measured:
# [1] = system: HeLa (human cervical cancer); experiment: MTT cytotoxicity assay, HeLa; assay type: cell-based; settings: 48 h
# Protocol: (§1) All cell lines were cultured in Roswell Park Memorial Institute 1640 culture media supplemented with 10% fetal bovine serum and incubated at 37°C in a 5% CO2 incubator. The IC50 values in Table 1 were measured by MTT assay according to our previous report [16].
# (§2) The cell viability was obtained by the MTT assay.
# [2] = system: HepG2 (human hepatocellular carcinoma); experiment: MTT cytotoxicity assay, HepG2; assay type: cell-based; settings: 48 h
# Protocol: as §1, §2
# MCF-7 (breast cancer) = experiment: MTT cytotoxicity assay, MCF-7; assay type: cell-based, human; settings: 48 h
# Protocol: as §1, §2
# [3] = system: BEAS-2B (immortalized human bronchial epithelial cells); experiment: MTT cytotoxicity assay, normal BEAS-2B; assay type: cell-based; settings: 48 h
# Protocol: as §1, §2
# [4] = system: A549 (human lung carcinoma); experiment: MTT cytotoxicity assay, A549; assay type: cell-based; settings: 48 h; for IC50: MTT
# Protocol: as §1, §2
Structure (SMILES),IC50 [1] [µM],IC50 [2] [µM],IC50 (MCF-7 (breast cancer)) [µM],IC50 [3] [µM],SI (selectivity index) = IC50 (BEAS-2B)/IC50 (A549) [4],IC50 [4] [µM]
N.N.[Cl][Pt][Cl] [Cisplatin],18.3 ± 1.2,30.2 ± 2,16.2 ± 2,21.4 ± 1.5,0.8,27.2 ± 1.4
"[Cl-].[Cl-].[Ru+2].c1ccc(-c2ccnc3c2ccc2c(-c4ccccc4)ccnc23)cc1.c1ccc(-c2ccnc3c2ccc2c(-c4ccccc4)ccnc23)cc1 [Ru(dip)2Cl2, cis-[Ru(dip)2Cl2]]",116 ± 6.8,108 ± 5.4,135 ± 7.9,,,138 ± 6.7
"Cc1ccc2ccc3ccc(C)nc3c2n1.Cc1ccc2ccc3ccc(C)nc3c2n1.[Cl-].[Cl-].[Ru+2] [Ru(dmp)2Cl2, cis-[Ru(dmp)2Cl2]]",> 200,169 ± 6.2,> 200,,,> 200
